Source: US9139811B2, “Composition for suspension culturing of stem cells” (SEOUL NATIONAL UNIVERSITY HOSPITAL, priority 2011, dated 2015)

Experiments:
[1] = test system: Human mesenchymal stem cells (BM-MSC); test: Suspension culture of human mesenchymal stem cells, trypan blue staining and cell counting; assay type: cell-based; details: for cell aggregation / apoptosis of non-aggregated single cells: 24 hours of culture, FIG. 2; for apoptosis of non-aggregated single cells: trypan blue staining
Method: Human mesenchymal stem cells (Lonza, Switzerland) were cultured in 10% FBS-containing α-MEM medium such that no contact inhibition occurred. […] Then, the cells were treated with 0.25% trypsin/EDTA and allowed to stand in a CO2 incubator at 37° C. for 30 seconds. The cells that dropped into the tube were collected, and the cells remaining in the dish were completely collected with 10% FBS-containing α-MEM, and the collected cells were centrifuged at 1500 rpm for 5 minutes. The supernatant medium was removed by suction, and the precipitated cells were suspended in 5 ml of EB medium (80% DMEM/F12 80%+20% serum replacement) and then centrifuged at 1500 rpm for 5 minutes. Then, the cells were suspended in 10 ml of medium (containing or not containing 20 μM Y27632) in a 100 Φ Petri dish at a density of 2.0×10^6 cells. After 24 hours, the aggregated cells were stained with trypan blue, and then counted with an automated cell counter (Invitrogen).

BCL-XL = test: Western blotting of BCL-XL expression in suspension-cultured cells; assay type: cell-based, human; details: Y27632-treated vs control (naive) cells, FIG. 3
Method: (§1) In order to measure a change in the expression of an anti-apoptosis factor in a cell sample, the expression level of BCL-XL was measured at the protein level. In addition, the cells were collected after suspension culture for 6 hours, and the degree of phosphorylation of ERK which is involved in the activity of the cells was evaluated. Specifically, the cells were lysed with a reducing agent [Lysis PreMix (4° C. stock)+NaF ([…], ×100)+orthovanadate (200 mM, ×200)+proteinase inhibitor cocktail (1 tablet/10 ml)], and then electrophoresed on SDS-polyacrylamide gel. Then, the cells were transferred to a PVDF transfer membrane (Millipore), after which a change in the expression of the protein was examined by a primary antigen-antibody reaction using BCL-xl (Santa Cruz Biotechnology) and a secondary antigen-antibody reaction using anti-rabbit IgG and anti-mouse IgG.

[2] = test system: ERK (extracellular signal-regulated kinase); test: Western blotting of ERK phosphorylation in suspension-cultured cells; assay type: cell-based, human; details: suspension culture for 6 hours, Y27632-treated vs control (naive) cells, FIG. 4
Method: as §1

[3] = test system: HGF (hepatocyte growth factor); test: HGF ELISA of culture supernatant; assay type: cell-based, human; details: vs untreated control cells and EDTA-treated control cells, FIG. 5
Source text: (§2) In vivo conditions in which treatment of cells is required are mostly ischemic anoxic anaerobic conditions in which the cells are injured or broken, and one of major factors in the conditions is HGF (hepatocyte growth factor). Thus, in order to examine the expression level of the hepatocyte growth factor HGF, the supernatant was collected from the cell sample and analyzed by ELISA (enzyme-linked immunosorbent assay) using a HGF-specific antibody according to the manufacturer's protocol.

[4] = test system: Human mesenchymal stem cells; test: Suspension culture of human mesenchymal stem cells under anoxic anaerobic condition and cell counting; assay type: cell-based; details: for number of dead cells / number of viable cells / total number of cells / viability: anaerobic condition, 20 μM Y27632
Method: Human mesenchymal stem cells were cultured in 10% FBS-containing α-MEM medium such that no contact inhibition occurred. […] Then, the cells were treated with 0.25% trypsin/EDTA and allowed to stand in a CO2 incubator at 37° C. for 30 seconds. The cells that dropped into the tube were collected, and the cells remaining in the dish were completely collected with 10% FBS-containing α-MEM, and the collected cells were centrifuged at 2000 rpm for 5 minutes. The supernatant medium was removed by suction, and the precipitated cells were suspended in 5 ml of EB medium (80% DMEM/F12 80%+20% serum replacement) and then centrifuged at 1500 rpm for 5 minutes. Then, the cells were suspended in 10 ml of medium (containing or not containing 20 μM Y27632) in a 100 0 Petri dish at a density of 2.0×10^6 cells. Then, the cells were placed in an anoxic pack (BD Science) to induce an anoxic anaerobic condition. […]

[5] = test system: HGF (hepatocyte growth factor); test: Suspension culture of single cells using E-cadherin blocker: HGF expression; assay type: cell-based, human; details: aggregation inhibited with E-cadherin blocking antibody, Y-27632 for 24 hours, FIG. 9
Source text: as §2
In order to use E-cadherin to induce single-cell culture during suspension culture, the cells were treated with an E-cadherin blocker to inhibit the induction of cell aggregation during suspension culture. Specifically, human mesenchymal stem cells were cultured in 10% FBS-containing α-MEM medium such that no contact inhibition occurred. When a confluence of about 80% was reached, the medium was removed by suction for cell counting, and the cells were washed with PBS (calcium-free and magnesium-free). Then, the cells were treated with 0.25% trypsin/EDTA and allowed to stand in a CO2 incubator at 37° C. for 30 seconds. The cells that dropped into the tube were collected, and the cells remaining in the dish were completely collected with 10% FBS-containing α-MEM, and the collected cells were centrifuged at 1500 rpm for 5 minutes. […]

[6] = 20 μM Y27632, suspension culture 24 hours, trypan blue

Structure (SMILES) | total number of cells ([1]; 20 μM Y27632, suspension culture 24 hours) | number of dead cells [1, 6] | number of viable cells [1, 6] | viability [1, 6] | cell aggregation [1] | apoptosis of non-aggregated single cells [1] | expression of the anti-apoptosis factor BCL-XL (BCL-XL) | phosphorylation of ERK [2] | expression level of HGF [3] | number of dead cells ([4]; 6 hours of culture) | number of viable cells ([4]; 6 hours of culture) | total number of cells ([4]; 6 hours of culture) | viability ([4]; 6 hours of culture) | number of dead cells ([4]; 24 hours of culture) | number of viable cells ([4]; 24 hours of culture) | total number of cells ([4]; 24 hours of culture) | viability ([4]; 24 hours of culture) | apoptosis of single cells ([4]; anoxic anaerobic condition, FIG. 7) | HGF efficiency (expression level of HGF) [5]
C[C@@H](N)[C@H]1CC[C@H](C(=O)Nc2ccncc2)CC1.Cl.Cl (relative stereo) [Y27632, trans-4-[(1R)-1-Aminoethyl]-N-4-pyridinyl-cyclohexanecarboxamide, 2HCl] | 1.8×10^6 | 0.54×10^6 | 1.26×10^6 | 70% | further increased | prevented | significantly increased | significantly increased | significantly higher | 2.4×10^5 | 1.2×10^6 | 1.6×10^6 | 84% | 1.6×10^5 | 1.24×10^6 | 1.4×10^6 | 90% | did not undergo apoptosis | increased
O=C(O)CN(CCN(CC(=O)O)CC(=O)O)CC(=O)O [EDTA] |  |  |  |  | no cell aggregation occurred | apoptosis occurred in all the cells |  |  |  |  |  |  |  |  |  |  |  |  | 
